# Test results as given in patent US20200197354A1, “METHODS, COMPOSITIONS AND CONTAINERS FOR REDUCING SOLID FORM QUERCETIN DEGRADATION AND 2,4,6-TRIHYDROXYBENZOIC ACID TOXIC BYPRODUCT THEREOF” (PUBLIC JOINT STOCK COMPANY "SCIENTIFICINDUSTRIALCENTRE …, priority 2018, published 2020).
# Experiments:
# [1] = human oral exposure; cited from earlier work
# [2] = system: Pseudokirchneriella subcapitata; details: cited from earlier work
# Daphnia magna [3] = details: cited from earlier work
# [4] = humans, cited from earlier work
# Daphnia magna [5] = details: in vivo, 48 h
# Method: Toxicity is determined using a Daphnia magna mobility assay as described (Kamaya et al., 2005). Neonates (<24 h old) from 2-3-week-old mothers are placed in a 50 ml glass beaker containing 40 ml of a test solution. All experiments for exposure and controls without chemicals are made in four replicates and performed at 21±0.3° C. under 16 h light: 8 h dark photoperiod. Immobility is used as the endpoint for determining acute toxicity; the daphnids showing no movement within 15 s after gentle stirring are defined to be immobile. After 24 and 48 h, the number of immobile daphnids is recorded to determine the concentration able to achieve 50% immobilization and it is indicated as EC50. The EC50 values are calculated by Probit analyses (USEPA, 1993), based on nominal concentrations and compared to similar experiments using benzoic acid and 2,4,6-THBA.
# CDK2 = CDK2 (Homo sapiens, UniProt P24941); details: cited from earlier work
# HCT-116 human cells = details: cited from earlier work
# [6] = system: Pseudokirchneriella subcapitata; details: 48 h
# Method: Toxicity is determined using green algae Pseudokirchneriella subcapitata growth rate assay as described (Lee and Chen, 2009). Algal inoculum are withdrawn from the chemostat operated under a steady state, and transferred into 300 mL BOD bottles, together with dilution water (with growth medium) and toxicants. The BOD bottles are filled completely, leaving no headspace. A water seal is provided to ensure a closed test environment. The bottles are then placed on an orbital shaker operated at 100 rpm. Temperature and light intensity are kept at 24±1©° C. and 65 microEm−2 s−1 (±10%), respectively. US EPA bottle medium, with no EDTA content is used for toxicity testing. A sample of lyophilized quercetin (10%)/PVP (90%) is resuspended in solution. Two response endpoints are used to evaluate the toxicity of the resuspended quercetin; the final yield and algal growth rate based on cell density counts. […] The initial inoculated cell density is 15,000 cells/mL and the duration of the test is 48 h.
# [7] = human
# From the text: Potential human toxicity of 2,4,6-THBA can be related to its toxicity based on studies with Daphnia.
# CDK6 = CDK6 (Homo sapiens, UniProt Q00534); details: cited from earlier work
# CDK6, sequence (Q00534 whole entry): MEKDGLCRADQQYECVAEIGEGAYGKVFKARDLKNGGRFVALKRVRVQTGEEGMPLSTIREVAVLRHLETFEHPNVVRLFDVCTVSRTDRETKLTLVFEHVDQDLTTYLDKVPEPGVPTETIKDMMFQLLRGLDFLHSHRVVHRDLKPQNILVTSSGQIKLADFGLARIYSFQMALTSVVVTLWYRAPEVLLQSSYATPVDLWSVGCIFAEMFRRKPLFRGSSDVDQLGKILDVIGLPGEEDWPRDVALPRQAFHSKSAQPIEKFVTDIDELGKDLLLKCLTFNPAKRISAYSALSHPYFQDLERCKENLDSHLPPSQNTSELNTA
# CDK6, sequence (P24385 whole entry partner): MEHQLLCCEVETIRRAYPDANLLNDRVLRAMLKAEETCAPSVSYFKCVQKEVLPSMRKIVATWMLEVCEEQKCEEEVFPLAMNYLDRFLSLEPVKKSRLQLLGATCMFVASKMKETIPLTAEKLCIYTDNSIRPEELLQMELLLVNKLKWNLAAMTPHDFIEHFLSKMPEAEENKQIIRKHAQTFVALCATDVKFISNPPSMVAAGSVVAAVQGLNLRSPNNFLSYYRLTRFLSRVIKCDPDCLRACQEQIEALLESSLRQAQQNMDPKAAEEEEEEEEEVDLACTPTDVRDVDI
# CDK4 = CDK4 (Homo sapiens, UniProt P11802); details: cited from earlier work
# CDK4, sequence (P11802 whole entry): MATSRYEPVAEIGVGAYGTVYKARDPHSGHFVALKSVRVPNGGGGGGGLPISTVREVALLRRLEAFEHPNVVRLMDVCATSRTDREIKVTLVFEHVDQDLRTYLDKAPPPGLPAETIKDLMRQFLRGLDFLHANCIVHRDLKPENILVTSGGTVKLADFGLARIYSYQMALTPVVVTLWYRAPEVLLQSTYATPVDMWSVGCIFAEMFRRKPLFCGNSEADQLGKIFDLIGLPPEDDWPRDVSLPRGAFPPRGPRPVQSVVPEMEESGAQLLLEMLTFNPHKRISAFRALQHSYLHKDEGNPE
# CDK4, sequence (P24385 whole entry partner): as the sequence (P24385 whole entry partner) above
# CDK1 = CDK1 (Homo sapiens, UniProt P06493); details: cited from earlier work
# CDK1, sequence (P06493 whole entry, species assumed): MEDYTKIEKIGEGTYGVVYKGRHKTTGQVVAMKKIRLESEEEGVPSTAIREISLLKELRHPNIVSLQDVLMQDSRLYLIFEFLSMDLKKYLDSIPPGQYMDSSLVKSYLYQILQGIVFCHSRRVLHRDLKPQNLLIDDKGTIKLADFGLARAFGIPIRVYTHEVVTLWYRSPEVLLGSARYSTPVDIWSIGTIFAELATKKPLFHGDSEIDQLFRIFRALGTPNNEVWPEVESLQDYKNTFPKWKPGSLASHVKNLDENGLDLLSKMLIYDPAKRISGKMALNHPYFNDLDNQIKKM
# CDK1, sequence (P14635 whole entry partner, species assumed): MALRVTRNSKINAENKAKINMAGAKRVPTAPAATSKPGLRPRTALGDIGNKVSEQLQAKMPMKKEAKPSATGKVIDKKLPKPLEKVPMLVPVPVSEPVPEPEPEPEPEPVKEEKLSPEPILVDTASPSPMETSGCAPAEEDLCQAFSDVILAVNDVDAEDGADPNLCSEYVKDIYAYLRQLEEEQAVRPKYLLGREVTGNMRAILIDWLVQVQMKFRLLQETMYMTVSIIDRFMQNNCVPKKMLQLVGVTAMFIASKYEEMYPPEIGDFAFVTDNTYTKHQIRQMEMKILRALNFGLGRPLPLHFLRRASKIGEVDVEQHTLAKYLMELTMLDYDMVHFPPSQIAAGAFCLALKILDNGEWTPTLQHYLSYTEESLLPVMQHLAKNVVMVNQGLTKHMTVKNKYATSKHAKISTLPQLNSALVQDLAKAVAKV
SMILES,RfD / toxicity in humans [1],"EC50, suppression of growth [2]","EC50 at 48 h, mobility assay (Daphnia magna [3])",elimination half-life ([4]; after ingestion in foods or supplements),bioavailability of quercetin [4],toxicity relative to benzoic acid (Daphnia magna [5]),inhibitory effect on CDK2 (CDK2),cytotoxicity compared to other salicylic acid metabolites (HCT-116 human cells),toxicity relative to benzoic acid and its other derivatives [6],RfD estimated from Daphnia EC50 [7],RfD-based toxicity relative to benzoic acid [7],RfD-based toxicity relative to quercetin [7],inhibitory effect on CDK6 (CDK6),"LC50 in 48 h, immobilization test (Daphnia magna [3])",inhibitory effect on CDK4 (CDK4),inhibitory effect on CDK1 (CDK1)
O=C(O)c1ccccc1 [benzoic acid],1 mg/kg/day,36 µg/mL,860 µg/mL,,,,,,,,,,,,,
"O=c1c(O)c(-c2ccc(O)c(O)c2)oc2cc(O)cc(O)c12 [quercetin, 2-(3,4-dihydroxyphenyl)-3,5,7-trihydroxy-4H-chromen-4-one]",more than 15 mg/kg/day,,,1 to 2 h,0-50%,,,,,,,,,,,
"O=C(O)c1c(O)cc(O)cc1O [2,4,6-THBA, 2,4,6-trihydroxybenzoic acid]",,0.546 µg/mL,1.7 µg/mL,,,about 500 times,strong inhibitory effect,more cytotoxic,70 times,0.02 mg/kg/day,more than 50 times,700 times,strong inhibitory effect,1.7 µg/mL,strong inhibitory effect,strong inhibitory effect
